Measurements taken from patent US12084436B2, “Heterocyclic compound” (Takeda Pharmaceutical Company Limited, priority 2019, dated 2024).

Target: T1, HDAC6 enzyme (Homo sapiens, UniProt Q9UBN7)
T1 construct: prepared by transducing full length HDAC6 gene into Sf-9 insect cells; GST; purchased SignalChem; host or cells: Sf-9 insect cells
T1 sequence (Q9UBN7 1-1215): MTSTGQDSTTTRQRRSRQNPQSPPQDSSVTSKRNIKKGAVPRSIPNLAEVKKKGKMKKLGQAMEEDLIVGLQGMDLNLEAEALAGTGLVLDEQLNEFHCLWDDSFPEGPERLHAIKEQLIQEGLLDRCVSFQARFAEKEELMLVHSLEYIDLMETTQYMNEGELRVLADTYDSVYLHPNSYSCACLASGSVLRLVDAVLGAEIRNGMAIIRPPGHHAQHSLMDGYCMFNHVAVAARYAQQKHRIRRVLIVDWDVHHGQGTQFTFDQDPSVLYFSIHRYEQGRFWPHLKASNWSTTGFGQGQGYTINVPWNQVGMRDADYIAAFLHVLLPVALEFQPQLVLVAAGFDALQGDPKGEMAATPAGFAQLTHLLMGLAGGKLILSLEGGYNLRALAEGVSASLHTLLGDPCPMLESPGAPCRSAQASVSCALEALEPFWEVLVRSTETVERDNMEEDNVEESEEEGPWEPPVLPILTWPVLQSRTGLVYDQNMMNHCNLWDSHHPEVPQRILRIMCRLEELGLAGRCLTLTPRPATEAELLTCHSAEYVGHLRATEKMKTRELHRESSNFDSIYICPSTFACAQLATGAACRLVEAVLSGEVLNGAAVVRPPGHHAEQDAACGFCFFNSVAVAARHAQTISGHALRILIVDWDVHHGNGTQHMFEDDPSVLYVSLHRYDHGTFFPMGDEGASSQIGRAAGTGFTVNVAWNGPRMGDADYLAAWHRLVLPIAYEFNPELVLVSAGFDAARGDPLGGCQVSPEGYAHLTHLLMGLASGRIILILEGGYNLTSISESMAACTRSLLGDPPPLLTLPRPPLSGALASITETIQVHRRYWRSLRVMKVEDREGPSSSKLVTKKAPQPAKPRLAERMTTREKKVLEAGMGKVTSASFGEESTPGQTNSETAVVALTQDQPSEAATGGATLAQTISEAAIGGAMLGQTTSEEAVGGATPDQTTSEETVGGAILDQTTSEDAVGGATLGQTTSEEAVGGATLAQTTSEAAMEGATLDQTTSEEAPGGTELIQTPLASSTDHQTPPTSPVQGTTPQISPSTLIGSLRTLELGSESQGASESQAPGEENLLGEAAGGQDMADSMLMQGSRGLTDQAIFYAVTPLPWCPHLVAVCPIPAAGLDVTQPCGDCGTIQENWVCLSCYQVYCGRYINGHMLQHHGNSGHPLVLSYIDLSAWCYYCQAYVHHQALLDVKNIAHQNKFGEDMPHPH
Experiment: HDAC6 enzyme inhibitory assay (HDAC-Glo I/II Assay kit, luminescence)
Assay type: biochemical
Settings: 10 μM test compound; wells without enzyme = 100% inhibition; 10 µM
Protocol: HDAC6 Enzyme Inhibitory Assay
HDAC6 enzyme prepared by transducing full length HDAC6 gene into Sf-9 insect cells and purifying by GST affinity column were purchased from SignalChem. Using this enzyme, HDAC6 enzyme inhibitory activities of the compound of the present invention were evaluated. Enzymes were used after preserved at −70° C. HDAC6 enzyme inhibitory activity of the compound of the present invention was measured using HDAC-Glo™ I/II Assay kit (Promega) according to the following experimental method. The test compound diluted with assay buffer (24 mM Tris-HCl (pH 7.5), 1 mM MgCl2, 0.35 mM KCl, 135 mM NaCl, 0.6 mM Glutathione, 0.01% Tween-20) was added to a 384-well plate by each 2 μL. Then, HDAC6 enzyme solution diluted with assay buffer was added thereto by each 4 μL, and the plate was incubated at room temperature for 60 min. After incubated, HDAC substrate-Developer solution prepared according to Promega protocol attached to the assay kit was added to the 384-well plate by each 2 μL, and the enzyme reaction was started. After reacting at room temperature for 20 min, luminescence level was measured using plate reader Envision (PerkinElmer). The inhibitory activity of each compound of Example was calculated as a relative activity value when luminescence level in wells without enzyme is considered as 100% inhibition.

Row | HDAC6 inhibitory rate (%) (10 μM) | Compound
1 | 100 | CN1C(=O)c2cc(-c3nnc(C(F)F)o3)cnc2CC1(C)c1ccc(F)cc1 (single isomer, unassigned) [Example 1b, 3-[5-(difluoromethyl)-1,3,4-oxadiazol-2-yl]-7-(4-fluorophenyl)-6,7-dimethyl-7,8-dihydro-1,6-naphthyridin-5(6H)-one]
2 | 96 | CN1C(=O)c2cc(-c3nnc(C(F)F)o3)ccc2OC1(C)c1ccc(F)cc1 (single isomer, unassigned; isomer 2) [Example 9b, 6-[5-(difluoromethyl)-1,3,4-oxadiazol-2-yl]-2-(4-fluorophenyl)-2,3-dimethyl-2,3-dihydro-4H-1,3-benzoxazin-4-one (optical isomer 2)]

Same assay, conditions: 10 μM test compound; wells without enzyme = 100% inhibition; read-out: HDAC6 inhibitory rate (%) (10 μM)

Row | inhibition at 10 µM [%] | Compound
3 | 99 | Cc1noc(Cn2ccnc2-c2cc(F)cc(-c3nnc(C(F)F)o3)c2)n1 [Example 56a, 5-[(2-{3-[5-(difluoromethyl)-1,3,4-oxadiazol-2-yl]-5-fluorophenyl}-1H-imidazol-1-yl)methyl]-3-methyl-1,2,4-oxadiazole]
4 | 96 | Fc1cc(-c2nnc(C(F)F)o2)cc(-c2nccn2Cc2cccnn2)c1 [Example 26a]
5 | 99 | COCCOC(=O)N(Cc1ccc(F)cc1)N1Cc2ccc(-c3nnc(C(F)F)o3)cc2C1=O [Example 11c, 2-methoxyethyl {6-[5-(difluoromethyl)-1,3,4-oxadiazol-2-yl]-1-oxo-1,3-dihydro-2H-isoindol-2-yl}[(4-fluorophenyl)methyl]carbamate]
6 | 99 | CN(C(=O)OC(C)(C)C)N1Cc2ncc(-c3nnc(C(F)F)o3)cc2C1=O [Example 68c, tert-butyl {3-[5-(difluoromethyl)-1,3,4-oxadiazol-2-yl]-5-oxo-5,7-dihydro-6H-pyrrolo[3,4-b]pyridin-6-yl}methylcarbamate]
7 | 99 | O=C1NN(C2CCCCC2)Cc2ccc(-c3nnc(C(F)F)o3)cc21 [Example 11b, 3-cyclohexyl-7-[5-(difluoromethyl)-1,3,4-oxadiazol-2-yl]-3,4-dihydrophthalazin-1(2H)-one]
8 | 93 | Fc1cc(-c2nnc(C(F)F)o2)cc(-c2nccn2Cc2cccc(Cl)c2)c1 [Example 21a, 2-(3-[1-[(3-chlorophenyl)methyl]-1H-imidazol-2-yl}-5-fluorophenyl)-5-(difluoromethyl)-1,3,4-oxadiazole]
9 | 99 | N#Cc1cnc(-c2cc(-c3nnc(C(F)F)o3)ccn2)n1Cc1cccc(F)c1 [Example 82a, 2-{4-[5-(difluoromethyl)-1,3,4-oxadiazol-2-yl]pyridin-2-yl}-1-[(3-fluorophenyl)methyl]-1H-imidazole-5-carbonitrile]
10 | 99 | Cc1cc(Cn2ccnc2-c2cc(F)cc(-c3nnc(C(F)F)o3)c2)on1 [Example 62a, 2-(difluoromethyl)-5-(3-fluoro-5-{1-[(3-methyl-1,2-oxazol-5-yl)methyl]-1H-imidazol-2-yl}phenyl)-1,3,4-oxadiazole]
11 | 98 | CN1C(=O)c2cc(-c3nnc(C(F)F)o3)ccc2OC1(C)c1ccccn1 (stereo not shown) [Example 12b, 6-[5-(difluoromethyl)-1,3,4-oxadiazol-2-yl]-2,3-dimethyl-2-(pyridin-2-yl)-2,3-dihydro-4H-1,3-benzoxazin-4-one]
12 | 100 | CN1C(=O)c2cc(-c3nnc(C(F)F)o3)ccc2OC1c1ccc(F)cc1 (stereo not shown) [Example 44b, 6-[5-(difluoromethyl)-1,3,4-oxadiazol-2-yl]-2-(4-fluorophenyl)-3-methyl-2,3-dihydro-4H-1,3-benzoxazin-4-one]
13 | 42 | CN1C(=O)c2cc(-c3nnc(C(F)F)o3)ccc2C[C@@]1(C)c1ccc(F)c(F)c1 [Example 49b, (3S)-7-[5-(difluoromethyl)-1,3,4-oxadiazol-2-yl]-3-(3,4-difluorophenyl)-2,3-dimethyl-3,4-dihydroisoquinolin-1(2H)-one]
14 | 99 | Fc1cccc(Cn2c(Br)cnc2-c2cc(-c3nnc(C(F)F)o3)ccn2)c1 [Example 74a, 2-{5-bromo-1-[(3-fluorophenyl)methyl]-1H-imidazol-2-yl}-4-[5-(difluoromethyl)-1,3,4-oxadiazol-2-yl]pyridine]
15 | 100 | Cc1cccc(Cn2ccnc2-c2cc(-c3nnc(C(F)F)o3)ccn2)c1 [Example 83a, 4-[5-(difluoromethyl)-1,3,4-oxadiazol-2-yl]-2-{1-[(3-methylphenyl)methyl]-1H-imidazol-2-yl}pyridine]
16 | 97 | CN1CCC(COc2cccnc2-c2cc(F)cc(-c3nnc(C(F)F)o3)c2)CC1=O (stereo not shown) [Example 14a, 4-{[(2-{3-[5-(difluoromethyl)-1,3,4-oxadiazol-2-yl]-5-fluorophenyl}pyridin-3-yl)oxy]methyl}-1-methylpiperidin-2-one]
17 | 100 | CN1C(=O)c2cc(-c3nnc(C(F)F)o3)ccc2OC1(C)c1cccnc1 (stereo not shown) [Example 43b, 6-[5-(difluoromethyl)-1,3,4-oxadiazol-2-yl]-2,3-dimethyl-2-(pyridin-3-yl)-2,3-dihydro-4H-1,3-benzoxazin-4-one]
18 | 100 | Fc1cccc(Cn2ccnc2-c2cc(-c3nnc(C(F)F)o3)ccn2)c1 [Example 71a, 4-[5-(difluoromethyl)-1,3,4-oxadiazol-2-yl]-2-{1-[(3-fluorophenyl)methyl]-1H-imidazol-2-yl}pyridine]
19 | 99 | Fc1cc(-c2nnc(C(F)F)o2)cc(-c2nccn2CC2CCCOC2)c1 (stereo not shown) [Example 29a, 2-(difluoromethyl)-5-(3-fluoro-5-{1-[(oxan-3-yl)methyl]-1H-imidazol-2-yl}phenyl)-1,3,4-oxadiazole]
20 | 101 | CN1C(=O)c2cc(-c3nnc(C(F)F)o3)cnc2CC1(C)c1ccc(F)c(F)c1 (stereo not shown) [Example 38b, 3-[5-(difluoromethyl)-1,3,4-oxadiazol-2-yl]-7-(3,4-difluorophenyl)-6,7-dimethyl-7,8-dihydro-1,6-naphthyridin-5(6H)-one]
21 | 98 | FC(F)c1nnc(-c2ccnc(-c3nc(Cl)c(Cl)n3Cc3ccccn3)c2)o1 [Example 40a, 2-{4,5-dichloro-1-[(pyridin-2-yl)methyl]-1H-imidazol-2-yl}-4-[5-(difluoromethyl)-1,3,4-oxadiazol-2-yl]pyridine]
22 | 101 | CN(Cc1ccccc1C(F)F)N1Cc2ccc(-c3nnc(C(F)F)o3)cc2C1=O [Example 65c, 6-[5-(difluoromethyl)-1,3,4-oxadiazol-2-yl]-2-[{[2-(difluoromethyl)phenyl]methyl} (methyl)amino]-2,3-dihydro-1H-isoindol-1-one]
23 | 99 | Fc1cc(-c2nnc(C(F)F)o2)cc(-c2nccn2Cc2ccccc2)c1 [Example 4a, 2-[3-(1-benzyl-1H-imidazol-2-yl)-5-fluorophenyl]-5-(difluoromethyl)-1,3,4-oxadiazole]
24 | 100 | CN1C(=O)c2cc(-c3nnc(C(F)F)o3)ccc2CC1c1ccc(F)cc1 (stereo not shown) [Example 33b, 7-[5-(difluoromethyl)-1,3,4-oxadiazol-2-yl]-3-(4-fluorophenyl)-2-methyl-3,4-dihydroisoquinolin-1(2H)-one]
25 | 97 | Fc1cc(-c2nnc(C(F)F)o2)cc(-c2nccn2Cc2ccccc2Cl)c1 [Example 20a, 2-(3-{1-[(2-chlorophenyl)methyl]-1H-imidazol-2-yl]-5-fluorophenyl)-5-(difluoromethyl)-1,3,4-oxadiazole]
